Data reported in patent US20110136880A1, “Latrunculin-Based Macrolides and Their Uses” (priority 2009, published 2011).
Like-named read-outs stand apart in the source and are kept apart here.

Legend:
MCF7 = test: MTT proliferation assay, MCF7; assay type: cell-based, human; conditions: for IC50: Homo sapiens, MCF7, MTT, 72 h, mean ± SEM, read-out: IC50 (μM) MCF7
Excerpt: (§1) The antiproliferative and anti-invasive activities of compounds 1-14 were quantified using MTT and cell invasion assay kits, respectively. Latrunculin A (compound 1) was used as a positive control in all biological assays, because it is known to be an actin polymerization inhibitor, with cytotoxic, antiproliferative, and anti-invasive activities. The 3-[4,5-dimethylthiazol-2-yl]-2,5-diphenyl tetrazolium bromide (MTT) assay selectively detects living cells in a quantitative, colorimetric fashion, based on a living cell's ability to reduce MTT to an insoluble, purple formazan dye. The MTT assay is routinely used to assess cytotoxicity and proliferation inhibition activities. The antiproliferative activities of compounds 1-14 were measured against two human mammary gland adenocarcinoma cell lines, MCF7 and MDA-MB-231, and against human prostate cancer cells PC-3 at five different doses (0.1, 0.5, 1, 10, and 50 μM). While many of the semisynthetic latrunculins had similar activity levels, some had greater activity than compound 1. […] Although the MDA-MB-231 cells were more resistant than MCF7 against most latrunculin derivatives tested, compound 14 had potent activity against both cell lines.
(§2) MTT Proliferation Assay. The growth of MCF7, MDA-MB-231, and PC-3 cancer cell lines was measured using an MTT kit (TACS™, TREVIGEN®, Inc.). Exponentially growing cells were plated in a 96-well plate at a density of 8×10^3 cells per well, and allowed to attach for 24 h. Complete growth medium was then replaced with 100 μL of RPMI serum-free medium containing various concentrations (50, 10, 1, 0.5, 0.1 μM) of the particular test compound. Culture continued at 37° C. under 5% CO2. After 72 h of culture, the cells were treated with MTT solution (10 μL/well) at 37° C. for 4 h. The color reaction was stopped by adding solubilization/stop solution (100 μL/well). Incubation continued at 37° C. continued to completely dissolve the formazan dye product. Absorbance of the samples was determined at 570 nm with an ELISA plate reader (BioTek, VT). The number of cells per well was calculated against a standard curve that had been prepared by plating various concentrations of cells, as determined by hemocytometer, at the start of each experiment. IC50 for each compound was calculated using a nonlinear regression curve fit of log concentration versus the number of cells/well, using GraphPad Prism 5.0 (GraphPad Software, La Jolla, Calif.).

[1] = tested on: microvessel density marker CD31 in endothelial colony forming cells (ECFCs); test: Angiogenesis inhibition assay (CD31 in ECFCs); assay type: cell-based
Experimental: Effects on Angiogenesis. Angiogenesis inhibition assays were conducted using endothelial colony forming cells (ECFCs). The microvessel density marker CD31 was quantified using confocal laser scanning microscopy and immunohistochemistry.

MDA-MB-231 = test: MTT proliferation assay, MDA-MB-231; assay type: cell-based, human; conditions: for IC50: Homo sapiens, MDA-MB-231, MTT, 72 h, mean ± SEM, read-out: IC50 (μM) MDA-MB-231
Excerpt: as §1, §2

pyrene-conjugated actin = target: T1, pyrene-conjugated actin (Oryctolagus cuniculus, UniProt P68135); test: Pyrene actin polymerization assay; assay type: biochemical; conditions: for inhibition at 0.1 µM: 100 nM, read-out: Actin polymerization inhibition (%) 100 nM; for inhibition at 0.1 µM / inhibition at 1 µM: compared to vehicle control (DMSO); for inhibition at 1 µM: read-out: Actin polymerization inhibition (%) 1 μM; for IC50: mean ± SEM, triplicate
T1 construct: purchased Cytoskeleton, Denver, Colo
Experimental: An actin polymerization kit was used to assess the direct actin-binding activity of each analogue at two concentrations: 100 nM and 1 μM. This kit is based on the enhanced fluorescence of pyrene-conjugated actin that occurs during polymerization. When pyrene-G-actin (monomer) forms pyrene-F-actin, fluorescence is enhanced. The enhanced fluorescence is used to follow polymerization over time. Table 2 lists activities as the percentage of actin polymerization inhibition, compared to the negative vehicle control (DMSO), along with calculated IC50.
Pyrene-Actin Polymerization Assays. Actin polymerization assays were performed in accordance with the manufacturer's instructions (Cytoskeleton, Denver, Colo.). Briefly, […] final concentration of monomeric actin (1:10 pyrene labeled) was incubated on ice for 10 min with one of various concentrations of one of the latrunculin derivatives. Samples were then equilibrated 10 min in an ELISA plate reader (BioTek, VT), after which polymerization was induced by adding KCl, MgCl2, and ATP. Compounds 1-14 were tested at 0.1, 0.5, 1.0, and 10 μM. The IC50 for each compound was calculated using GraphPad Prism 5.0.
Pyrene-actin polymerization assays. Actin polymerization inhibitory activity is assessed using the Cytoskeleton Actin Polymerization kit (Cytoskeleton, Denver, Colo.). Briefly, […] (final concentration) of monomeric actin (1:10 pyrene labeled) is incubated on ice for 10 min with one of various concentrations of the test latrunculin compound. Samples are equilibrated 10 min in an ELISA plate reader (BioTek, VT), after which polymerization is induced by adding KCl, MgCl2, and ATP. Compounds are tested at 0.1, 0.5, 1.0, and 10 μM. The IC50 for each compound is calculated using GraphPad Prism 5.0.

Row | Structure (SMILES) | IC50 (MCF7) | inhibition at 2 µM [1] | inhibition at 10 µM [1] | IC50 ([1]; read-out: IC50 CD31 in ECFCs) | IC50 (MDA-MB-231) | inhibition at 0.1 µM (pyrene-conjugated actin) | inhibition at 1 µM (pyrene-conjugated actin) | IC50 (pyrene-conjugated actin) | factor of greater activity than compound 1, MCF7 proliferation assay (MCF7; assessed at 1 μM) | fold increase in activity against MCF7 versus compound 1 (MCF7; relative to compound 1) | IC50 ([1]; read-out: antiangiogenic activity IC50 range) | factor of greater activity than compound 1, MDA-MB-231 proliferation assay (MDA-MB-231; assessed at 1 μM)
1 | COc1ccc(CC(=O)N2C(=O)SC[C@H]2[C@@]2(OC)C[C@H]3C[C@@H](CC[C@H](C)/C=C\C=C\CC/C(C)=C\C(=O)O3)O2)cc1 [Compound 11, 17-O-Methyl-N-(7′-methoxyphenylacetyl)latrunculin A] | 15.4 ± 1.21 µM | 100% | 100% | < 43 nM | 26.2 ± 3.91 µM | 0% | 13% | > 10000 nM | – | – | – | –
2 | C/C1=C/C(=O)O[C@@H]2C[C@@H](CC[C@H](C)/C=C\C=C\CC1)O[C@@](O)([C@@H]1CSC(=O)N1CO)C2 [Compound 14, N-Hydroxymethyllatrunculin A] | 0.12 ± 0.01 µM | 100% | 100% | 63 nM | 2.99 ± 0.15 µM | 35% | 90% | 210 ± 54 nM | 4 | 4.0 fold | 40 to 820 nM | 1.4
